Assay results: US20240069010A1, “TISSUE ORGANOID BIOPRINTING AND HIGH-THROUGHPUT SCREENING METHODOLOGY” (priority 2020, published 2024)
Like-named read-outs stand apart in the source and are kept apart here.

What was measured:
MCF-7 organoids = assay: Endpoint ATP-release assay (CellTiter-Glo) of organoid viability; format: cell-based; conditions: for viability at 0.1 µM / viability at 1 µM / viability at 10 µM: Homo sapiens; for Organoid viability by endpoint ATP assay, Viability ± SD: MCF-7, 72 h of treatment, luminescence relative to 1% DMSO control
Protocol: All drug treatments of 3D organoids were performed in serum-free conditions in MammoCult™ medium supplemented with 1% antibiotic-antimycotic (Gibco 15240-062). A detailed protocol for the drug screening has been published previously in Phan, N. et al. supra; and Nguyen, H. T. L. & Soragni, supra. Briefly, the culture medium was fully removed three days after seeding and replaced with 100 μL of MammoCult™ medium containing the indicated treatments using an automated pipetting system (EpMotion® 96). After treatment, we transferred the organoids to the HSLCI for imaging. Organoids were imaged by HSLCI between 6 hours and 48 hours after treatment. After imaging, we performed an ATP assay to assess cell viability in accordance with the manufacturer's instructions. The media was aspirated from each well and replaced with 50 μL of 5 mg/mL Dispase (Thermo-Fisher) solution to digest the Matrigel. After a 25-minute incubation at 37° C., the plate was placed on an orbital shaker for 5 minutes at 80 RPM. We then added 30 μL of CellTiter-Glo® reagent (Promega), sealed the plate with film, covered the plate with foil to protect from light, shook the plate for 5 minutes at 80 RPM, and incubated at room temperature for an additional 20 minutes. We used a SpectraMax iD3 plate reader to measure luminescence. The program parameters for luminescence readings were 5 minutes of shaking prior to reading, reading all wavelengths, and integrating signal over 500 ms. Organoid viability within each well was calculated by dividing the luminescent signal from each well by the mean luminescence of the control (1% DMSO) wells. Two-tailed independent t-tests were performed to assess the statistical significance of the differences in organoid mass and cell viability. P-values less than 0.05 were deemed significant.

BT-474 organoids = assay: HSLCI mass tracking of bioprinted organoids in drug screening; format: cell-based; conditions: for Organoid Behavior (%) Gained Mass: mass increase >10%; for Organoid Behavior (%) Lost Mass: mass loss >10%; for Organoid Behavior (%) Stable: mass change <10%
Text: Cells were bioprinted using a CELLINK BioX with a Temperature-Controlled Printhead. Gcode files were written to print the desired single-layer geometry. We wrote standardized blocks of Gcode encode the print path for the repeated geometries. MATLAB (MathWorks, Inc.) was used to integrate these standardized blocks into full Gcode files with the defined coordinates for each well. We used 8-well plates when printing the larger constructs as the depth of the well in a standard 24-well plate prohibited the use of 0.5″ length needles. Large rings were necessary to deposit a sufficient number of cells for RNA-Seq and IHC. Four rings with a diameter of 14.5 mm were printed for RNA sequencing (approximately 200,000 cells total), while four sets of concentric 14.5 mm, 12.5 mm, and 10.5 mm diameter rings were used for IHC analysis (approximately 500,000 cells total). We printed mini-squares with side length 3.9 mm for drug screening and HSLCI imaging. The mini-squares were inscribed within the circular well with sides parallel to the sides of the well plate. The open center of the constructs facilitates automatic manipulation with fluid handling equipment while the sides of the square are positioned to maximize the number of organoids imaged by HSLCI. The bioprinting process utilized the same material deposited for manually seeded organoids. A single cell suspension, aggregates or clusters in a 3:4 mixture of MammoCult™ and Matrigel® was prepared on ice. After vortexing briefly to homogenize, the mixture was transferred into a 3 mL syringe by removing the plunger and capping the opposite end. Once the plunger was replaced, the syringe was inverted, and bubbles were forced out of the tip. The material was then transferred to a room temperature 3 mL bioprinter cartridge (CELLINK) by connecting the syringe and cartridge with a double-sided female Luer lock adapter (CELLINK). Any air bubbles in the syringe were removed and the loaded cartridge was incubated in a rotating incubator (Enviro-Genie, Scientific Industries) for 30 minutes at the print temperature.
During the incubation period, the printer was sterilized with the built-in UV irradiation function and the printhead was set to the print temperature. […] The well masks were autoclaved prior to use. The masks were inserted into the well plate and pressed in contact with the glass surface. Rubber bands were used to hold the masks in place and ensure conformal contact was maintained throughout the plasma treatment. The well plates were treated with oxygen plasma in a PE-25 (Plasma Etch) for 30-90 seconds, 15 minutes prior to bioprinting. After plasma treatment, the well plate was placed in the bioprinter and Automatic Bed Levelling (ABL) was performed.
Once the incubation period ended, we attached a 0.5″ 25-gauge needle and loaded the cartridge into the pre-cooled printhead. We primed the needle by extruding a small volume of material at 15 kPa prior to calibrating the printer. Just before printing, we cleared the needle of the gelled material by extruding a small volume using 40 kPa prior to starting the print. To create constructs of the appropriate thicknesses, prints in 8-well plates were extruded at 15 kPa while prints in 96-well plates were extruded at 12-15 kPa. […] After printing, the constructs were incubated at 37° C. for at least 30 minutes to solidify the matrix and 100 μL of MammoCult™ medium was then added.
The HSLCI platform was installed inside a standard cell culture incubator. For all growth kinetics studies and drug screening, organoids were imaged in 96-well glass-bottom plates (Cellvis P96-1.5H-N) using a 40× objective (Nikon, NA 0.75). Organoids were seeded as single-cell suspensions in a 3:4 mixture of MammoCult™ and Matrigel® as described above and were grown at 37° C. and 5% CO2 in MammoCult™ medium supplemented with 1% antibiotic-antimycotic (Gibco 15240-062).

[1] = MCF7, 6 h, read-out: Comparisons of cell viability measures by ATP detection assay, Mean mass ± SD
[2] = MCF7, 72 h, read-out: Organoid viability by endpoint ATP assay, Viability ± SD

CN[C@@H]1C[C@H]2O[C@@](C)([C@@H]1OC)n1c3ccccc3c3c4c(c5c6ccccc6n2c5c31)C(=O)NC4 [Staurosporine, staurosporine]
viability at 0.1 µM (MCF-7 organoids; [1]): 50 ± 8% | viability at 1 µM (MCF-7 organoids; [1]): 17 ± 4% | viability at 10 µM (MCF-7 organoids; [1]): 13 ± 3% | viability at 0.1 µM (MCF-7 organoids; [2]): 50 ± 8% | viability at 1 µM (MCF-7 organoids; [2]): 17 ± 4% | viability at 10 µM (MCF-7 organoids; [2]): 13 ± 3% | Organoid viability by endpoint ATP assay, Viability ± SD (MCF-7 organoids; 1 μM): near-zero viability | Organoid viability by endpoint ATP assay, Viability ± SD (MCF-7 organoids; 10 μM): near-zero viability | Mean mass of BT-474 organoids, Mean mass ± SD (BT-474 organoids; 1 μM, 6 hours of treatment): 1.38 ± 0.49 ng | Mean mass of BT-474 organoids, Mean mass ± SD (BT-474 organoids; 1 μM, 48 hours of treatment): 0.70 ± 0.26 ng | Mean mass of BT-474 organoids, Mean mass ± SD (BT-474 organoids; 1 μM, 48 hours of treatment, listed as staurosporine): 0.70 ± 0.26 ng | Mean mass of BT-474 organoids, Mean mass ± SD (BT-474 organoids; 10 μM, 6 hours of treatment): 1.46 ± 0.72 ng | Mean mass of BT-474 organoids, Mean mass ± SD (BT-474 organoids; 10 μM, 48 hours of treatment): 0.83 ± 0.72 ng | Mean mass of BT-474 organoids, Mean mass ± SD (BT-474 organoids; 10 μM, 48 hours of treatment, listed as staurosporine): 0.83 ± 0.72 ng | Organoid Behavior (%) Gained Mass (BT-474 organoids; BT-474 organoids, 0.1 μM, 12 h): 27.6% | Organoid Behavior (%) Lost Mass (BT-474 organoids; BT-474 organoids, 0.1 μM, 12 h): 1.7% | Organoid Behavior (%) Stable (BT-474 organoids; BT-474 organoids, 0.1 μM, 24 h): 50.0% | Organoid Behavior (%) Gained Mass (BT-474 organoids; BT-474 organoids, 0.1 μM, 24 h): 45.8% | Organoid Behavior (%) Lost Mass (BT-474 organoids; BT-474 organoids, 0.1 μM, 24 h): 4.2% | Organoid Behavior (%) Stable (BT-474 organoids; BT-474 organoids, 0.1 μM, 48 h): 23.4% | Organoid Behavior (%) Gained Mass (BT-474 organoids; BT-474 organoids, 0.1 μM, 48 h): 70.1% | Organoid Behavior (%) Lost Mass (BT-474 organoids; BT-474 organoids, 0.1 μM, 48 h): 6.5% | Organoid Behavior (%) Stable (BT-474 organoids; BT-474 organoids, 1 μM, 12 h): 47.6% | Organoid Behavior (%) Gained Mass (BT-474 organoids; BT-474 organoids, 1 μM, 12 h): 19.0% | Organoid Behavior (%) Gained Mass (BT-474 organoids; BT-474 organoids, 1 μM, 12 h, listed as staurosporine): 19% | Organoid Behavior (%) Stable (BT-474 organoids; BT-474 organoids, 1 μM, 24 h): 29.5% | Organoid Behavior (%) Gained Mass (BT-474 organoids; BT-474 organoids, 1 μM, 24 h): 13.6% | Organoid Behavior (%) Lost Mass (BT-474 organoids; BT-474 organoids, 1 μM, 24 h): 56.8% | Organoid Behavior (%) Stable (BT-474 organoids; BT-474 organoids, 1 μM, 48 h): 12.0% | Organoid Behavior (%) Gained Mass (BT-474 organoids; BT-474 organoids, 1 μM, 48 h): 4.0% | Organoid Behavior (%) Lost Mass (BT-474 organoids; BT-474 organoids, 1 μM, 48 h): 84.0% | reduction in the number of organoids that increased in size (BT-474 organoids; BT-474 organoids, 1 μM, after 12 hours, compared to the control): 60% | Organoid Behavior (%) Stable (BT-474 organoids; BT-474 organoids, 10 μM, 12 h): 64.3% | Organoid Behavior (%) Gained Mass (BT-474 organoids; BT-474 organoids, 10 μM, 12 h): 7.1% | Organoid Behavior (%) Lost Mass (BT-474 organoids; BT-474 organoids, 10 μM, 12 h): 28.6% | Organoid Behavior (%) Stable (BT-474 organoids; BT-474 organoids, 10 μM, 24 h): 23.9% | Organoid Behavior (%) Gained Mass (BT-474 organoids; BT-474 organoids, 10 μM, 24 h): 19.6% | Organoid Behavior (%) Lost Mass (BT-474 organoids; BT-474 organoids, 10 μM, 24 h): 56.5% | Organoid Behavior (%) Gained Mass (BT-474 organoids; BT-474 organoids, 10 μM, 48 h): 14.8% | Organoid Behavior (%) Lost Mass (BT-474 organoids; BT-474 organoids, 10 μM, 48 h): 66.7%
